Measured values taken from ChEMBL document CHEMBL1201862, “PubChem BioAssay data set” (2004).
Calls of active or inactive are those of the source.

Experiments:
[1] = ATP-based viability loss in HEK293T cells – cell-based, CellTiter-Glo luminescence, cherry-picked samples, set 4, cytotoxicity control, dose response (AID 743441); assay type: functional; conditions: HEK293
[2] = MIN6 cell viability loss – mouse insulinoma, cytotoxicity control, dose response (AID 2122); assay type: functional;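 also: confirmatory high-throughput counterscreen run to flag cytotoxic compounds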
[3] = general mammalian cell viability loss – inhibitor set, cherry-pick, set 2, cytotoxicity control for miR-122 modulator project, dose response (AID 720697); assay type: functional, cell-based
[4] = microbe, parasite or virus in culture; assay type: functional; conditions: Mycobacterium tuberculosis
[5] = decrease of insulin promoter-GFP reporter – imaging, high-content screening, mouse beta cells (AID 1628); assay type: functional; conditions: MIN6
[6] = reduction of Shn3 3'UTR-driven luciferase in osteoblasts – cell-based, Clone20 osteoblasts, firefly luciferase, cherry-picked, dose response (AID 624132); assay type: functional;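 also: firefly luciferase luminescence from reporter carrying the Shn3 3'UTR in osteoblasts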
[7] = loss of viability in HepG2 cells – cell-based, CellTiter-Glo, cherry-picked, cytotoxicity control for Shn3 inhibitor project, dose response (AID 624134); assay type: functional
[8] = non-specific 3'UTR reporter inhibition in Clone20-Shn3RL – cell-based, Renilla luciferase, cherry-picked, counter-screen for Shn3 inhibitor project, dose response (AID 624133); assay type: functional
[9] = viability loss in human hepatoma cells – cell-based, CellTiter-Glo luminescence, cherry-pick, set 2, cytotoxicity control, dose response (AID 743395); assay type: functional
[10] = Shn3 3'UTR reporter signal decrease – cell-based, Clone20 osteoblasts, firefly luciferase, cherry-pick, set 2, Schnurri-3 inhibitor project, dose response (AID 720490); assay type: functional;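 also: actives lower the luminescence signal as inhibitors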
Aminopeptidase N = molecular target: T1, Aminopeptidase N (Plasmodium falciparum FcB1/Columbia, UniProt O96935); assay: malaria alanyl aminopeptidase activity blockers – biochemical, fluorogenic H-Leu-NHMec substrate, 1536-well (AID 1445); set-up: species or system Plasmodium falciparum 3D7, 3D7
T1 sequence (O96935 whole entry): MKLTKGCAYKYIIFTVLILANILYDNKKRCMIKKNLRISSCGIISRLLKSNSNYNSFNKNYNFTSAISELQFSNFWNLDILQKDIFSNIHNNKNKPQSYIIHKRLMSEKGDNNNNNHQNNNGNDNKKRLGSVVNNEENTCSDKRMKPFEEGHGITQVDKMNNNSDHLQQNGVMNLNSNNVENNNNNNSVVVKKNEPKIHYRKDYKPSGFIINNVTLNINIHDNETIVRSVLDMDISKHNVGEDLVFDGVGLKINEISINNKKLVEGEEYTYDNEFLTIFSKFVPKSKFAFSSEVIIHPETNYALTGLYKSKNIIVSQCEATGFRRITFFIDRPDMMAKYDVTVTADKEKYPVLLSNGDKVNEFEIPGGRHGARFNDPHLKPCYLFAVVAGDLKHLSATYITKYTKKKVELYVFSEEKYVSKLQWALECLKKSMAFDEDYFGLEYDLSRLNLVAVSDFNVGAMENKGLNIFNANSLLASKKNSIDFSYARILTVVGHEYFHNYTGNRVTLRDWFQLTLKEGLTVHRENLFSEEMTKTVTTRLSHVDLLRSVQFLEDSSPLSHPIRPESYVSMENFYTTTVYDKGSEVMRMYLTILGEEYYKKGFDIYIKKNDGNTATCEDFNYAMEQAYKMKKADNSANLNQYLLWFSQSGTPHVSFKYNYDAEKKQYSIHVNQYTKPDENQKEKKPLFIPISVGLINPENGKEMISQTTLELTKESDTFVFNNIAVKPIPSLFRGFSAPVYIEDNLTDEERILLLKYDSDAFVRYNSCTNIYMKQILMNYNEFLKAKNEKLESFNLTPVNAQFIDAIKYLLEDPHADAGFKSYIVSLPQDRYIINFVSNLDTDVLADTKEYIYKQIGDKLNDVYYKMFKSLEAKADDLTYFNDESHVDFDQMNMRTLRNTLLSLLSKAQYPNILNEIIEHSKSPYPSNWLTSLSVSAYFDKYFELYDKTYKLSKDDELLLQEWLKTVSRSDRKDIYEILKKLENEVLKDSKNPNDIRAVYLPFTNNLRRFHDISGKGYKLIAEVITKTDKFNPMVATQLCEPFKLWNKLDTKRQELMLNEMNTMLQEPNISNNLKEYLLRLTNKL

[11] = molecular target: Endoplasmic reticulum aminopeptidase 1 (Homo sapiens, UniProt Q9NZ08); assay: inhibition of human ERAP1 enzyme activity – biochemical, cherry-pick, set 2, plate reader, dose response (AID 743314)
Sequence of Endoplasmic reticulum aminopeptidase 1 (Q9NZ08 whole entry): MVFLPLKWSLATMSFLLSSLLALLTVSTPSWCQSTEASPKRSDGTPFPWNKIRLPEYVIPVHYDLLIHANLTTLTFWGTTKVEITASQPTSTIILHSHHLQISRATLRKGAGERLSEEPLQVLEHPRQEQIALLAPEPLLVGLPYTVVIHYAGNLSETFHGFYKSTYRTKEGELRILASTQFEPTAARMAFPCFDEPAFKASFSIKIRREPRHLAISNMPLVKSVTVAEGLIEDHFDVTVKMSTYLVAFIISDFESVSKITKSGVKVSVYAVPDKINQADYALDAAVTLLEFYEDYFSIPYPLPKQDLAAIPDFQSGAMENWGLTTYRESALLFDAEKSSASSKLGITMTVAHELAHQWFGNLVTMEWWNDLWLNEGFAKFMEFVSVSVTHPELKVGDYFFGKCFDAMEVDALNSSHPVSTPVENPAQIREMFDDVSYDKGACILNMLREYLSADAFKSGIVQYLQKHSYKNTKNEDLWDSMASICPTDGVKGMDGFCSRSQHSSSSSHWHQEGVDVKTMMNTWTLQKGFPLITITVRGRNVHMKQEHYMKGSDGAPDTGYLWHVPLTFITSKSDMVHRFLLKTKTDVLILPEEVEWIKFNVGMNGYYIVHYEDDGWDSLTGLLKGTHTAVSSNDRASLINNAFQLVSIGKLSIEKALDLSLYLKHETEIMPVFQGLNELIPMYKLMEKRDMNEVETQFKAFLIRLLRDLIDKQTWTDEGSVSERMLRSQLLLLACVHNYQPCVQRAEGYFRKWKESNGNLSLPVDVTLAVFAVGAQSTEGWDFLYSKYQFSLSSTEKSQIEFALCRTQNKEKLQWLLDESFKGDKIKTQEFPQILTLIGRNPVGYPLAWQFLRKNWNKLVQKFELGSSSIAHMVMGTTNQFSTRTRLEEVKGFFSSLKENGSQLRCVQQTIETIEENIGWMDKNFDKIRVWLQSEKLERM

[12] = molecular target: Metabotropic glutamate receptor 5 (Rattus norvegicus, UniProt P31424); assay: Identification of a glycine sulfonamide based non-MPEP site positive allosteric potentiator (PAM) of mGlu5 (calcium_assay).; assay type: functional
Sequence of Metabotropic glutamate receptor 5 (P31424 whole entry): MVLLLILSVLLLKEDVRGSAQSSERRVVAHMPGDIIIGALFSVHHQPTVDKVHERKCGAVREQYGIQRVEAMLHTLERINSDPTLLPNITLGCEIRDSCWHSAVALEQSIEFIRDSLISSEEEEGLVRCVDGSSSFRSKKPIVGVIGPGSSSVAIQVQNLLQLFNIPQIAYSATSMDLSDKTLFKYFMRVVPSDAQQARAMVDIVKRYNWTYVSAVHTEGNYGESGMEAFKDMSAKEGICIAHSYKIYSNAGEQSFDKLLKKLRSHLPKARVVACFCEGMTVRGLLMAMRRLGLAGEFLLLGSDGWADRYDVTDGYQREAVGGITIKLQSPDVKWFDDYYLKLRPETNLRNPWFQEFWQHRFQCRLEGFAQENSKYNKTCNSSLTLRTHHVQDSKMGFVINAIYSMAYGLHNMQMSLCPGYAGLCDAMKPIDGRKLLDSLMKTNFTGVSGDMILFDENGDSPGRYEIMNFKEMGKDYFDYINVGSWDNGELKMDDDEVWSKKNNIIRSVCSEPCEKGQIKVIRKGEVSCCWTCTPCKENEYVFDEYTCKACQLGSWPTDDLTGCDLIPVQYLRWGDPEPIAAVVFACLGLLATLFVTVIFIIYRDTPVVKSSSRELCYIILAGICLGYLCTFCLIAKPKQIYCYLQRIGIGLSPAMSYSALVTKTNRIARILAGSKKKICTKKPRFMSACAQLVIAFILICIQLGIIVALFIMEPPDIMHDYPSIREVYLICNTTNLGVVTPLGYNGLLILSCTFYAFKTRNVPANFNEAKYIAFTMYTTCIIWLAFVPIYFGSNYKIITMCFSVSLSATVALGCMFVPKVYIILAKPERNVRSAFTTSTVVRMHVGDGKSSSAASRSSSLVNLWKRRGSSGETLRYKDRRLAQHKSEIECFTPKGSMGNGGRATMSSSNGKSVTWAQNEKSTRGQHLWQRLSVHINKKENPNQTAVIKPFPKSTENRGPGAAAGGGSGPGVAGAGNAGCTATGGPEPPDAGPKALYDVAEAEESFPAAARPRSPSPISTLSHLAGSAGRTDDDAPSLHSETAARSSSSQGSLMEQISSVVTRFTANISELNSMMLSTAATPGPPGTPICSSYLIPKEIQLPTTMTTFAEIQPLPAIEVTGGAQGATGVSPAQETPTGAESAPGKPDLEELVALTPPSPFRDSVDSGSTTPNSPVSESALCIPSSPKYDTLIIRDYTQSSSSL

[13] = A2780 cell killing – plate reader, dry powder samples, cytotoxicity control, dose response (AID 743046); assay type: functional, cell-based
[14] = P. falciparum Dd2 growth inhibitors, dose response, SYBR Green, cherry-picked samples (AID 1159567); assay type: functional, cell-based
[15] = general cell-killing toxicity readout – plate reader, dry powder samples, cytotoxicity control for PAX8 inhibitor project, dose response (AID 743021); assay type: functional, cell-based
Paired box protein Pax-8 = Paired box protein Pax-8 (Homo sapiens, UniProt Q06710); assay: PAX8 transcriptional activity inhibition in RMG-I – RMG-I cells, luciferase, cherry-pick, dose response (AID 687027); assay type: functional, cell-based;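 also: luciferase reporter driven by Pax8 target thyroperoxidase promoter measured by SteadyGlo luminescence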
Sequence of Paired box protein Pax-8 (Q06710 whole entry): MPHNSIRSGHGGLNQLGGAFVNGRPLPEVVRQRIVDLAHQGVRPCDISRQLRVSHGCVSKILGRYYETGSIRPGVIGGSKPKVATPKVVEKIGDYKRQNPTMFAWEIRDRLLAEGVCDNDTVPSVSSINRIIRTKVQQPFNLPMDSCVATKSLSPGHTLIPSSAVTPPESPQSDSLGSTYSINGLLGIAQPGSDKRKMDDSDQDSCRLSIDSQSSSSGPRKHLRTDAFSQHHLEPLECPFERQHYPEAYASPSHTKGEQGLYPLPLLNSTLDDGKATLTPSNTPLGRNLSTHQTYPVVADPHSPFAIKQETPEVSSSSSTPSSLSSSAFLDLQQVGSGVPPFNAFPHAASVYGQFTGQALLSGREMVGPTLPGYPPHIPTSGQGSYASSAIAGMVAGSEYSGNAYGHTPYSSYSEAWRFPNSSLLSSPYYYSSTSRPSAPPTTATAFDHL

[16] = toxicity toward immortalized ovarian surface epithelium – cell-based, plate reader, dry powder samples, cytotoxicity control for PAX8 inhibitor project, dose response (AID 743045); assay type: functional
[17] = OVCAR8 cell viability loss – plate reader, dry powder samples, PAX8 project, dose response (AID 743197); assay type: functional, cell-based; conditions: OVCAR-8
[18] = OVCAR-3 cell viability loss – plate reader, dry powder samples, PAX8 inhibitor project, dose response (AID 743044); assay type: functional, cell-based
[19] = toxicity to human hepatoma HepG2 cells – cell-based, cherry-picked samples, cytotoxicity control, dose response (AID 1159577); assay type: functional
[20] = IGROV1 cell killing – plate reader, dry powder samples, PAX8 inhibitor project, dose response (AID 743043); assay type: functional, cell-based; conditions: IGROV-1
HeLa = assay: viability loss in HeLa cells – cell-based, ATP luminescence, cherry-pick samples, cytotoxicity control, dose response (AID 687004); assay type: functional; conditions: Homo sapiens
[21] = inhibitors acting on PAX2 in cells – cell-based, plate reader, dry powder samples, selectivity assay for PAX8 inhibitor project, dose response (AID 743048); assay type: functional;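 also: HEK293 cells carrying a WT1 promoter luciferase reporter driven by expressed Pax2; potency is for inhibition of Pax2 driven reporter signal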
[22] = OV-90 cell viability loss – plate reader, dry powder, SA8, PAX8 inhibitor project, dose response (AID 743149); assay type: functional, cell-based
[23] = COV434 cell viability loss – plate reader, dry powder, SA7, cytotoxicity control for PAX8 inhibitor project, dose response (AID 743145); assay type: functional, cell-based
[24] = COV362 cell viability loss – plate reader, dry powder, SA12, cytotoxicity control for PAX8 inhibitor project, dose response (AID 743144); assay type: functional, cell-based
[25] = PAX8-dependent cell viability loss – plate reader, dry powder, dose response (AID 743049); assay type: functional, cell-based
[26] = PAX5 cellular inhibition readout – cell-based, plate reader, dry powder samples, selectivity assay for PAX8 inhibitor project, dose response (AID 743047); assay type: functional;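 also: HEK293 cells carrying a Pax5 driven CD19 promoter luciferase reporter; potency of inhibitors that lower reporter luminescence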
[27] = molecular target: Delta-type opioid receptor (Homo sapiens, UniProt P41143); assay: Late-stage results from the probe development effort to identify antagonists of OPRK1: fluorescence-based cell-based dose response OPRD1 counterscreen.; assay type: functional
Sequence of Delta-type opioid receptor (P41143 whole entry): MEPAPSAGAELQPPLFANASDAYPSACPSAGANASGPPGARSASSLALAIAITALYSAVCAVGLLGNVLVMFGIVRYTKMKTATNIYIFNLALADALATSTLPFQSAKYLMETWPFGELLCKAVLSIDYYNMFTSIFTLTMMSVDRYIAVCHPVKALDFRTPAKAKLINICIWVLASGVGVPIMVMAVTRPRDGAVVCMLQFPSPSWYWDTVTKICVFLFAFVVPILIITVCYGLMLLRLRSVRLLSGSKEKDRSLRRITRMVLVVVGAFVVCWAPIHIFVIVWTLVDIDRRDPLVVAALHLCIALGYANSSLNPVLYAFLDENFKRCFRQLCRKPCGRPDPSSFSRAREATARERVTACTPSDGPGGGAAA

Mu-type opioid receptor = Mu-type opioid receptor (Homo sapiens, UniProt P35372); assay: Late-stage results from the probe development effort to identify antagonists of OPRK1: luminescence-based cell-based dose response OPRM1 counterscreen.; assay type: functional
Sequence of Mu-type opioid receptor (P35372 whole entry): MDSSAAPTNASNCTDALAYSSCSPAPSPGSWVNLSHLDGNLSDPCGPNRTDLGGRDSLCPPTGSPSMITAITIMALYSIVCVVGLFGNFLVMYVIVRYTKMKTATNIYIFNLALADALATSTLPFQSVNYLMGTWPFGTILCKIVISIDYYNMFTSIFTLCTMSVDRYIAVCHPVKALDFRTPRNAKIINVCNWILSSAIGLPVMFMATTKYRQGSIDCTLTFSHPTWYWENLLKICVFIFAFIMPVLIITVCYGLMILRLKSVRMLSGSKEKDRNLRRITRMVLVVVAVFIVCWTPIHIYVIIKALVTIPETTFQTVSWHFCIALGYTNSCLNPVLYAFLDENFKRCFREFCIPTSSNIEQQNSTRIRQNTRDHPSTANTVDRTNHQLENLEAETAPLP

INS1 = assay: INS-1E survival protection against cytokine death – cell-based, luminescence, retest, dose response (AID 449756); assay type: functional; conditions: Rattus norvegicus;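 also: cell death triggered by IL-1 beta plus TNF-alpha plus IFN-gamma mixture; protective hits raise ATP signal compared with cytokine alone wells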
[28] = general mammalian cell viability loss – activator set, cherry-pick, cytotoxicity control for miR-122 modulator project, dose response (AID 720690); assay type: functional, cell-based;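 also: HEK293T human cells scored for general mammalian cytotoxicity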
[29] = activation of miR-122 Renilla sensor silencing – cell-based, Huh7 psiCHECK-miR122, Renilla luciferase, cherry-picked, dose response (AID 651956); assay type: functional;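 also: huh7 hepatoma cells stably carrying a psiCHECK-2 miR-122 sensor plasmid; renilla luciferase signal reporting endogenous miR-122 activity after 48 h compound exposure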
[30] = Dd2 parasite growth inhibition in erythrocytes – SYBR Green, dry powder samples, set 9, dose response (AID 1159568); assay type: functional, cell-based
[31] = growth inhibition of PfATP4-mutant resistant parasites – NITD609-resistant line, SYBR Green, dry powder, dose response (AID 1159571); assay type: functional, cell-based;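 also: parasites synchronized at ring stage by sorbitol before testing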
[32] = Dd2 malaria parasite growth inhibition potency – SYBR Green, dry powder samples, dose response (AID 1159566); assay type: functional, cell-based;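 also: potency for growth inhibition with lower SYBR green DNA signal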
[33] = toxicity to human HepG2 hepatoma cells – cell-based, plate reader, dry powder samples, cytotoxicity control, dose response (AID 1159569); assay type: functional;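 also: inhibitor potency with signal falling toward the positive control level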
[34] = growth inhibition of yeast DHODH-expressing 3D7 parasites – SYBR Green, dry powder samples, dose response (AID 1159570); assay type: functional, cell-based;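 also: parasite growth measured after 72 hours of compound exposure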

## Cc1c(C(=O)O)sc2nc(CSc3ncc(C(F)(F)F)cc3Cl)nc(O)c12
[1]
  AC50: > 52 µM (inactive)

## COc1ccc(-c2oc3ncnc(NCCCN4CCOCC4)c3c2-c2ccc(OC)cc2)cc1
[2]
  IC50: > 16 µM (inactive)
[3]
  AC50: 1.51 µM (active)
[4]
  CC50: 24.8 µM (active)
[5]
  IC50: 0.898 µM (active)

## CCOC(=O)c1oc2ccc(S(=O)(=O)n3nc(-c4ccccc4)cc3N)cc2c1C
[6]
  AC50: 0.854 µM (active)
[2]
  IC50: 1.01 µM (active)
[7]
  AC50: 56.8 µM (active)
[8]
  AC50: 7.82 µM (active)
[9]
  AbsAC35_uM: 31.08 µM
[5]
  IC50: 1.08 µM (active)

## CCOC(=O)N1CCN(c2ccc(S(=O)(=O)N(Cc3ccccc3)Cc3ccccc3)cn2)CC1
[6]
  AC50: 2.59 µM (active)
[10]
  AC50: 2.09 µM (active)
[7]
  AC50: 45 µM (active)
[8]
  AC50: 34.3 µM (active)

## CCc1c(C)c2cc(Cl)c(O)c(CN(CC)CC)c2oc1=O
Aminopeptidase N
  IC50: 34.6 µM (active)
[11]
  AC50: 6.85 µM (active)

## CS(=O)(=O)N1c2ccccc2CCC1C(=O)Nc1ccccn1 (configuration not stated)
[12]
  EC50: 0.944 µM

## COc1ccc(C#Cc2ccc([C@@H]3[C@H](CO)N4CCCCN(C(=O)Nc5cccc(F)c5)C[C@@H]34)cc2)cc1
[13]
  AC50: 15.3 µM (active)
[14]
  AC50: 1.43 µM (active)
[15]
  AC50: 40.6 µM (active)
Paired box protein Pax-8
  AC50: 9.89 µM (active)
[16]
  AC50: 16.3 µM (active)
[17]
  AC50: 18.1 µM (active)
[18]
  AC50: 10 µM (active)
[19]
  AC50: 6.45 µM (active)
[20]
  AC50: 10.5 µM (active)

## COc1cccc(-c2cn(CC[C@@H]3CC[C@@H](NC(C)=O)[C@H](CO)O3)nn2)c1
HeLa
  AC50: > 52 µM (inactive)

## CCCC#Cc1ccc([C@@H]2[C@@H](C#N)N(C(=O)C3CCCCC3)[C@H]2CO)cc1
[21]
  AC50: 14.1 µM (active)
[22]
  AC50: 36 µM (active)
[23]
  AC50: 34.5 µM (active)
Paired box protein Pax-8
  AC50: 6.02 µM (active)
[24]
  AC50: 41.8 µM (active)
[25]
  AC50: 31 µM (active)
[17]
  AC50: 51 µM (active)
[26]
  AC50: 18.3 µM (active)

## COC(=O)c1cc(Br)cnc1N1CCC(NC2CCC(C)CC2)CC1 (configuration not stated)
[27]
  IC50: 18 µM (inactive)
Mu-type opioid receptor
  IC50: 8.6 µM (active)

## Cc1cc(C(=O)N/N=C/c2cc(Br)ccc2OC(=O)c2ccccc2)[nH]n1
INS1
  AC50: 1.91 µM (active)
[28]
  AC50: 16.6 µM (active)
[29]
  AC50: 43.1 µM (active)

## COc1ccc(C#Cc2ccc3c(c2)O[C@@H](CN(C)C(=O)Nc2cccc(OC)c2)[C@@H](C)CN([C@@H](C)CO)S3(=O)=O)cc1
[30]
  AC50: 0.399 µM (active)
[31]
  AC50: 0.556 µM (active)
[32]
  AC50: 0.405 µM (active)
[33]
  AC50: > 100 µM (inactive)
[14]
  AC50: 1.09 µM (active)
[34]
  AC50: 0.603 µM (active)
